Measurements published in patent US20230263822A1, “MODULATION OF FACTOR 11 EXPRESSION” (Ionis Pharmaceuticals, Inc., priority 2008, published 2023).
Blank lines part the entries; values can stand above or below the compound they belong to.

Tests used:
[1] = parameters: species or system BALB/c mice; details: mouse, in vivo
Procedure: ISIS 404071 and Apixaban were evaluated in the tail bleeding model.
The saline filled tubes were weighed before and after bleeding.

Factor 11 mRNA = Factor 11 mRNA in liver, FeCl3 induced venous thrombosis model vs Apixaban (Example 14); format: in vivo, BALB/c mice; details: for % inhibition of Factor 11 mRNA in liver relative to PBS control: FeCl3 VT model
Procedure: (§1) ISIS 404071 and Apixaban were evaluated in the FeCl3 induced VT mouse model. […] Two days after receiving the last dose of ISIS 404071, mice were anesthetized with 150 mg/kg ketamine mixed with 10 mg/kg xylazine administered by intraperitoneal injection. […] Twenty minutes after receiving Apixaban, mice were anesthetized with 150 mg/kg ketamine mixed with 10 mg/kg xylazine administered by intraperitoneal injection. […] Two days after the last dose of PBS, mice in both groups were anesthetized with 150 mg/kg ketamine mixed with 10 mg/kg xylazine administered by intraperitoneal injection. Thrombus formation was induced with FeCl3 in all of the mice except the first control group.
(§2) In mice undergoing FeCl3 treatment, thrombus formation was induced by applying a piece of filter paper (2×4 mm) pre-saturated with 10% FeCl3 solution directly on the vena cava. After 3 minutes of exposure, the filter paper was removed. Thirty minutes after the filter paper application, a fixed length of the vein containing the thrombus was dissected out for platelet analysis. Liver was collected for RNA analysis.
RNA was extracted from liver tissue for real-time PCR analysis of Factor 11. Results are presented as percent inhibition of Factor 11, relative to PBS control.

[2] = apixaban added to aspirin and to aspirin plus clopidogrel, compared with aspirin alone and aspirin plus clopidogrel (Wong); cited from earlier work
platelet factor-4 (PF-4) [3] = assay: Thrombus formation by PF-4 real-time PCR, FeCl3 induced venous thrombosis model vs Apixaban (Example 14); format: in vivo, BALB/c mice; details: for PF-4 in vena cava, percentage as compared to PBS controls (thrombus formation): + FeCl3
Procedure: as §1, §2
Real-time PCR quantification of platelet factor-4 (PF-4) was used to quantify platelets in the vena cava as a measure of thrombus formation. […] Results are presented as a percentage of PF-4 in ISIS 404071 or Apixaban treated mice, as compared to the two PBS-treated control groups.

blood coagulation = assay: PT and aPTT, combination with Apixaban (Example 20); format: in vivo, BALB/c mice
Procedure: PT and aPTT were measured using PPP from mice treated with ISIS 404071 in combination with Apixaban. In the first cohort, ISIS 404071 was administered subcutaneously to BALB/c mice at a dosage of 25 mg/kg twice a week for 3 weeks. Plasma was collected from these mice 5 days after receiving the last dose of ISIS 404071. In the second cohort, Apixaban was administered subcutaneously to BALB/c mice at a dosage of 6 mg/kg twice daily for three days. Plasma was collected from these mice 20 minutes after receiving the last dose of Apixaban. In the third cohort, ISIS 404071 was administered subcutaneously to BALB/c mice at a dosage of 20 mg/kg twice a week for 3 weeks, and Apixaban was administered subcutaneously at a dosage of 6 mg/kg twice daily on the last three days of ISIS 404071 treatment. Plasma was collected from these mice 20 minutes after receiving the last dose of Apixaban. In a fourth cohort, PBS was administered subcutaneously twice a week for three weeks, as a control. Plasma was collected 5 days after the last dose of PBS.
PT and aPTT values provided in Table 32 are reported as International Normalized Ratio (INR) values. […] However, Apixaban and Apixaban combined with ISIS 404071 increased PT. Also shown in Table 32, Apixaban, ISIS 404071, and ISIS 404071 combined with Apixaban increase aPTT.

[4] = Tail bleeding assay, Apixaban in combination with PLAVIX (Example 28); format: in vivo, BALB/c mice
Procedure: Five groups of eight BALB/c mice were treated with 0 mg/kg, 6.25 mg/kg, 12.50 mg/kg, 25.00 mg/kg, or 50.00 mg/kg of PLAVIX. Mice were given two doses of PLAVIX on day one and one dose of PLAVIX on day two, two hours before bleeding. An additional five groups of eight BALB/c mice were treated with 0 mg/kg, 6.25 mg/kg, 12.50 mg/kg, 25.00 mg/kg, or 50.00 mg/kg of PLAVIX. Mice were given two doses of PLAVIX on day one and one dose of PLAVIX on day two, two hours before bleeding. […] Two hours after receiving their final treatment, mice were placed in a tail bleeding chamber.

[5] = Tail bleeding assay, combination with PLAVIX (Example 27); format: in vivo, BALB/c mice; details: ISIS 404071 0
Procedure: ISIS 404071 was administered subcutaneously at a dosage of 20 mg/kg twice a week for 3 weeks to 5 groups of eight BALB/c mice. After the last dose of ISIS 404071, mice were treated with 0 mg/kg, 6.25 mg/kg, 12.50 mg/kg, 25.00 mg/kg, or 50.00 mg/kg of PLAVIX. Two doses of PLAVIX were administered to the mice on day one and one dose of PLAVIX was administered on day two, two hours before bleeding.
Two hours after receiving their final treatment, mice were placed in a tail bleeding chamber. […] The blood was collected for the course of 40 minutes.

platelet factor-4 (PF-4) [6] = assay: Thrombus formation by PF-4, FeCl3 induced VT model, combination with PLAVIX (Example 26); format: in vivo, BALB/c mice; details: for PF-4 mRNA, percent as compared to the PBS + FeCl3 control (thrombus formation): ISIS 404071 0 mg/kg
Procedure: The combination of ISIS 404071 and PLAVIX was evaluated in the FeCl3 induced VT mouse model. Four groups of eight BALB/c mice, weighing approximately 25 g each, were treated with 6.25 mg/kg, 12.50 mg/kg, 25.00 mg/kg, or 50.00 mg/kg of PLAVIX. Mice were given two doses of PLAVIX on day one and one dose of PLAVIX on day two, two hours before surgery.
After the last dose of ISIS 404071, mice were treated with 6.25 mg/kg, 12.50 mg/kg, 25.00 mg/kg, or 50.00 mg/kg of PLAVIX. Two doses of PLAVIX were administered to the mice on day one and one dose of PLAVIX was administered on day two, two hours before surgery.
Two control groups of eight BALB/c mice, weighing approximately 25 g each, were not treated with ISIS 404071 or PLAVIX. […] Thrombus formation was induced with FeCl3 in all of the mice except the first […] control groups. All mice were anesthetized with 150 mg/kg of ketamine mixed with 10 mg/kg of xylazine administered by intraperitoneal injection.
After 3 minutes of exposure, the filter paper was removed. Thirty minutes after the filter paper application, a fixed length of the vein containing the thrombus was dissected out for platelet analysis.
Real-time PCR quantification of PF-4 was used to quantify platelets in the vena cava as a measure of thrombus formation. […] Therefore, the combination of anti-platelet therapy with Factor 11 ASO increases antithrombotic activity. Data is presented as percent of PF-4 mRNA as compared to the PBS+ FeCl3 control.

[7] = Apixaban 0.5 mg/kg subcutaneously one time
[8] = Apixaban 2 mg/kg subcutaneously one time
[9] = Apixaban 5 mg/kg subcutaneously one time
[10] = Apixaban 10 mg/kg subcutaneously one time
[11] = Apixaban 20 mg/kg subcutaneously one time
[12] = BALB/c mice, ISIS 404071 25 or 20 mg/kg, Apixaban 6 mg/kg twice daily
[13] = ISIS 404071 alone 25 mg/kg s.c. twice a week for 3 weeks, Apixaban alone 6 mg/kg s.c. twice daily for three days, combination 20 mg/kg + 6 mg/kg

- bleeding in tail bleeding assay [1]: did increase bleeding
- bleeding risk in tail bleeding assay ([4]; Apixaban 0.5 mg/kg i.p. in combination with anti-platelet therapy (PLAVIX 0-50 mg/kg)): increases bleeding risk
- Blood (tail bleeding, collected for 40 minutes) ([4]; Apixaban 0.5 mg/kg intraperitoneally 20 minutes before bleeding, PLAVIX 0): 0.004 g
SMILES: COc1ccc(-n2nc(C(N)=O)c3c2C(=O)N(c2ccc(N4CCCCC4=O)cc2)CC3)cc1 [Apixaban, reference compound]
- % inhibition of Factor 11 mRNA in liver relative to PBS control (Factor 11 mRNA; [7]): 5%
- % inhibition of Factor 11 mRNA in liver relative to PBS control (Factor 11 mRNA; [8]): 8%
- % inhibition of Factor 11 mRNA in liver relative to PBS control (Factor 11 mRNA; [9]): 12%
- % inhibition of Factor 11 mRNA in liver relative to PBS control (Factor 11 mRNA; [10]): 2%
- % inhibition of Factor 11 mRNA in liver relative to PBS control (Factor 11 mRNA; [11]): 0%
- Factor 11 mRNA in liver vs PBS control (Factor 11 mRNA; FeCl3 induced VT model, ISIS 404071 1.25-40 mg/kg, Apixaban 0.5-5 mg/kg s.c. once): did not result in significant reduction of Factor 11
- bleeding time [2]: significant increase in bleeding time
- PF-4 in vena cava, percentage as compared to PBS controls (thrombus formation) (platelet factor-4 (PF-4) [3]; [7]): 67%
- PF-4 in vena cava, percentage as compared to PBS controls (thrombus formation) (platelet factor-4 (PF-4) [3]; [8]): 46%
- PF-4 in vena cava, percentage as compared to PBS controls (thrombus formation) (platelet factor-4 (PF-4) [3]; [9]): 15%
- PF-4 in vena cava, percentage as compared to PBS controls (thrombus formation) (platelet factor-4 (PF-4) [3]; [10]): 5%
- PF-4 in vena cava, percentage as compared to PBS controls (thrombus formation) (platelet factor-4 (PF-4) [3]; [11]): 26%
- PF-4 in vena cava as measure of thrombus formation (platelet factor-4 (PF-4) [3]; FeCl3 induced VT model, vs PBS control): also resulted in reduction of PF-4
- PT (blood coagulation; [12]): increased PT
- aPTT (blood coagulation; [12]): increase aPTT
- PT INR (blood coagulation; [13]): 3.25 INR
- aPTT INR (blood coagulation; [13]): 1.44 INR

- Blood (tail bleeding, collected for 40 minutes) ([5]; PLAVIX 6.25 mg/kg): 0.075 g
- Blood (tail bleeding, collected for 40 minutes) ([5]; PLAVIX 12.50 mg/kg): 0.205 g
- Blood (tail bleeding, collected for 40 minutes) ([5]; PLAVIX 50.00 mg/kg): 0.628 g
SMILES: COC(=O)[C@H](c1ccccc1Cl)N1CCc2sccc2C1 [PLAVIX, clopidogrel]
- PF-4 in vena cava as measure of thrombus formation (platelet factor-4 (PF-4) [6]; FeCl3 induced VT model, PLAVIX 6.25-50 mg/kg, ISIS 404071 20 mg/kg): resulted in a reduction of PF-4
- PF-4 mRNA, percent as compared to the PBS + FeCl3 control (thrombus formation) (platelet factor-4 (PF-4) [6]; PLAVIX 6.25 mg/kg): 59%
- PF-4 mRNA, percent as compared to the PBS + FeCl3 control (thrombus formation) (platelet factor-4 (PF-4) [6]; PLAVIX 12.50 mg/kg): 37%
- PF-4 mRNA, percent as compared to the PBS + FeCl3 control (thrombus formation) (platelet factor-4 (PF-4) [6]; PLAVIX 50.00 mg/kg): 30%
- PF-4 mRNA, percent as compared to the PBS + FeCl3 control (thrombus formation) (platelet factor-4 (PF-4) [6]; PLAVIX […]): 30%
